Test results reported in US4861865A, “Novel antithrombin peptide” (Washington University, priority 1989, dated 1989).

Target: T1, human thrombin (Homo sapiens, UniProt P00734)
T1 construct: human thrombin, bovine thrombin, and Ancrod; purchased Sigma Chemical
Experiment: Fibrinogen clotting assay (fibrometer) with thrombin
Type: biochemical
Conditions: final concentration of 10 U/ml
Protocol: Fibrinogen clotting times (S=seconds) in the presence of varying concentrations (μM) of the peptide were determined with a fibrometer following addition of thrombin. Each concentration of peptide was assayed in triplicate. Error bars indicate standard deviations.
All reagents were equilibrated to 37° C. before mixing.

## Heparin
  effect on clotting time: no effect on clotting time
